This note sets out measurements from ChEMBL document CHEMBL4842342, “Amidoxime prodrugs convert to potent cell-active multimodal inhibitors of the dengue virus protease” (Eur J Med Chem, 2021).

The nature of series [1]: Cytotoxicity against monkey LLC-MK2 cells assessed as reduction in cell viability by MTT assay. Conditions: rhesus monkey. The class given is cell-based, Macaca mulatta.
For series [2], the target named is T1, Genome polyprotein (dengue virus type 2, UniProt P29990). Nature of the series: Inhibition of DENV2 NS2B-NS3 protease assessed as inhibition of protease intermolecular processing.
The subject of series [3] is dengue virus type 2. Briefly: Antiviral activity against Dengue virus 2 infected in human A549 cells assessed as reduction in viral titer production measured after 48 hrs by plaque reduction assay. It is filed as functional, organism-based. Conditions: A549, 48 h. (In general: Plaques are areas of infected cells; plaque reduction assays count them against a control.)

In another series the test system is dengue virus type 4. Nature of the series: Antiviral activity against DENV4. The class given is functional, organism-based.
Series [4] relates to dengue virus type 2. Nature of the series: Antiviral activity against Dengue virus 2 measured at 48 hrs post-infection. The class given is functional, organism-based. As to conditions: Dengue virus, 48 h; read-out: EC50.
Series [5] concerns dengue virus type 2. Briefly: Antiviral activity against DENV2. It is filed as functional, organism-based.
For series [6], the system named is dengue virus type 2. Briefly: Antiviral activity against DENV2 infected in human Huh-7 cells assessed as log reduction in intracellular viral RNA synthesis at 10 uM treated at 6 hrs post-viral infection and measured after 12 hrs by real time RT-PCR method. It is filed as functional. (In qPCR the cycle at which signal appears reflects the starting amount.)
The target of series [7] is T1, Genome polyprotein. Briefly: Inhibition of NS2B-NS3 protease in DENV2 EDEN2 infected in human Huh-7 cells. It is filed as cell-based.
Series [8] deals with dengue virus type 2. Briefly: Antiviral activity against DENV2 infected in human Huh-7 cells assessed as log reduction in extracellular viral RNA synthesis at 10 uM treated at 6 hrs post-viral infection and measured after 48 hrs by real time RT-PCR method. It is filed as functional.
Another series concerns dengue virus type 1. Nature of the series: Antiviral activity against DENV1. It is filed as functional, organism-based.
Series [9] has as its target Genome polyprotein (dengue virus type 2) (UniProt P29990). Briefly: Inhibition of NS2B-NS3 protease in DENV2 infected in human Huh-7 cells assessed as inhibition of NS3 internal cleavage site at 10 uM treated 6 hrs […] viral infection and measured at 30 hrs post-infection by western blot analysis. It is filed as cell-based. Conditions: time 24.0 hrs. Background: A western blot detects proteins with antibodies after separation by electrophoresis.

The subject of series [10] is dengue virus type 2. Nature of the series: Antiviral activity against DENV2 infected in human Huh-7 cells assessed as log reduction in intracellular viral RNA synthesis at 10 uM treated at 6 hrs post-viral infection and measured after 38 hrs by real time RT-PCR method. It is filed as functional.
The next series deals with dengue virus type 3. Briefly: Antiviral activity against DENV3. It is filed as functional, organism-based.
Series [11] concerns dengue virus type 2. Nature of the series: Antiviral activity against Dengue virus 2 EDEN2 infected in human Huh-7 cells. It is filed as functional, organism-based. Conditions: EDEN2, Huh-7.
Series [12] in a line: Cytotoxicity against human Huh-7 cells assessed as reduction in cell viability. The class given is cell-based.
The nature of series [13]: Cytotoxicity against human PBMC assessed as reduction in cell viability.
Series [14] deals with dengue virus type 2. Briefly: Antiviral activity against DENV2 infected in human Huh-7 cells assessed as viral infection rate at 10 uM treated at 6 hrs post-viral infection and measured at 30 hrs post-infection by confocal microscopy (reference value: 50 to 60%). It is filed as functional. Conditions: time 24 hrs.
Series [15] deals with dengue virus type 2. Nature of the series: Antiviral activity against DENV2 infected in human Huh-7 cells assessed as reduction in intracellular viral RNA synthesis at 10 uM treated at 6 hrs post-viral infection and measured after 48 hrs by real time RT-PCR method. The class given is functional, organism-based.
Series [16] has as its system dengue virus type 2. Nature of the series: Antiviral activity against DENV2 D2Y10 virus infected in human PBMC cells in presence of 4G2 antibody. The class given is functional, organism-based.

Active and inactive are the calls of the source. No cut-off for these calls is given here.

What is called CC50 is the concentration that lowers cell viability or growth by half. For orientation: IC50 means the concentration at which inhibition is half-maximal. Take `O=C1c2c(O)ccc([N+](=O)[O-])c2C(=O)c2c([N+](=O)[O-])ccc(O)c21`: in series [1], the CC50 was determined as 69.4 µM. Besides, the IC50 on Genome polyprotein [2] came out at 432 µM.
Broadly, the EC50 is the concentration giving half of the maximal effect. For the compound `O=C1C=C/C(=N/Nc2ccc([N+](=O)[O-])cc2Cl)C=C1C(=O)Nc1cccc(Cl)c1`, in the series with dengue virus type 2 [3], the 50% effective concentration (EC50) was 0.81 µM.
Regarding `N/C(=N\O)c1cccc(-c2ccc3c(c2)c2cc(-c4cccc(/C(N)=N/O)c4)ccc2n3Cc2cccc(Br)c2)c1`, the EC50 with dengue virus type 4 stood at 1.7 µM; in the series with dengue virus type 2 [4], 1.1 µM; in the series with dengue virus type 2 [5], 1.4 µM; with dengue virus type 1, 5.9 µM; with dengue virus type 3, 5.1 µM; in the series on dengue virus type 2 [11], 1.1 µM. The concentration for a half-maximal effect (EC50) in the series on dengue virus type 2 [16] came to 1.66 µM. Besides, the “log(activity)” value in the series on dengue virus type 2 [6] amounted to 2; in the series on dengue virus type 2 [8], 3; in the series on dengue virus type 2 [10] it was 2. At Genome polyprotein [7], this compound registered a 50% inhibitory concentration (IC50) of 18 µM. Moreover, the inhibition entry in series [9] is “Active”. In addition, the CC50 in series [12] and in series [13] was over 100 µM each time. In addition, the Activity in the series on dengue virus type 2 [14] turned out to be 10%. For the same compound, the outcome in the series with dengue virus type 2 [15] was inactive.
